Where a chain is given by its changes, count along the chain named. Numbers in names are those of the source.

One series addresses T1, Efl1 R1086Q•Sdo1 (Saccharomyces cerevisiae, UniProt P53893, R1086Q).
T1 construct: made in house; host or cells: Efl1: Saccharomyces cerevisiae; Sdo1: Escherichia coli C41
The series is described as follows: ITC: binding of guanine nucleotides to pre-formed complex Efl1 R1086Q•Sdo1. The protocol:
(§1) All calorimetric measurements were carried out using MicroCal^TM iTC200 System (GE Healthcare, Northampton, MA, USA) in a temperature range of 25–35 °C. Experiments were performed in a buffer consisting of 50 mM Tris-HCl (pH 8.0), 150 mM NaCl, 100 µM DTT, and 5% glycerol. In the titrations with Mg^2+-bound nucleotides, both the ligand and protein solutions contained 5 mM MgCl2. In the case of titrations with Mg^2+-free nucleotide, both the ligand and protein solutions were supplemented with 2 mM EDTA to sequester any residual trace of metal ions in solution. Protein samples and ligands were prepared in the exact same buffer prior to each titration. Protein concentration in the cell comprised 30–50 µM GTPase, while the ligand concentration in the syringe was 2–3 mM for GTP, MgGTP, GDP, and MgGDP. To ensure measuring the interaction of the complex Efl1 R1086Q•Sdo1 with the nucleotide, an eight-fold concentration excess of Sdo1 was used compared with that of the enzyme. […] The titration schedule consisted of 15–20 consecutive injections of the ligand with 5 min intervals between injections and a stirring rate of 700 rpm. The dilution heat of the ligand was obtained by adding the ligand to a buffer solution under identical conditions and with the same injection schedule used for the protein sample. All samples were degassed for 10 min prior to the experiment.
(§2) The binding isotherms obtained for the isolated GTPase in the presence of Mg(II) were analysed using a ternary model in which the protein can bind to the free nucleotide (G(D)TP) or that bound to one magnesium ion (MgG(D)TP); additionally, GTP may also exist in the form of Mg2GTP, which is not recognised by the protein. The derivation of this coupled-equilibria model can be reviewed in [6, 31]. The binding constant (Kb), the enthalpy change (∆Hb), and the stoichiometry (n) were obtained with the non-linear routines implemented in Origin 5.0 (OriginLab, Co., Northampton, MA, USA) using a one-binding-site model as described in [32, 33]. The heterotropic cooperativity for the binding of guanine nucleotides and Sdo1 to Efl1 R1086Q were calculated as previously described in [6, 32]. The cooperative effects of Mg(II) on the binding of guanine nucleotides to Efl1 R1086Q alone and bound to Sdo1 were calculated as follows:κ = KE-MG/KE-G κ = KES-MG/KES-G Δh = ΔHE-MG − ΔHE-G Δh = ΔHES-MG − ΔHES-G where subscripts E-MG and E-G stand for the association of the metal-bound and metal-free guanine nucleotide with mutant Efl1, respectively. Corresponding expressions applied to the heterotropic cooperativity of the binding of nucleotides to the preformed complex, Efl1•Sdo1 (ES).
(§3) The impact of Sdo1 on the binding of Efl1 R1086Q to guanine nucleotides in the presence of magnesium ions is contained in KES-MG and ΔHES-MG relative to the KE-S and ΔHE-S values; analogous ratios report the effects in the absence of Mg(II):κ = KES-MG/KE-S κ = KES-G/KE-G Δh = ΔHES-MG − ΔHE-S Δh = ΔHES-G − ΔHE-G
(§4) The corresponding cooperative entropy change was calculated as:TΔs = Δh − Δg = Δh + RTlnκ
(§5) The detailed methodology and equations to compute the changes in the accessible surface area (∆ASA) of the GTPase upon binding to nucleotides and the ∆S energetic-based parameters are reported in [6]. Briefly, the water-accessible areas (ASAs) were computed using programme NACCESS, while the changes in accessible surface area (ΔASA) upon the formation of each GTPase–nucleotide complex were estimated considering the difference between the complex and the sum of the free interacting partners. The calculated polar (ΔASAp) and apolar (ΔASAap) area changes were subsequently used to estimate the free molecular partners. […]

In the next series the target is T2, Efl1 R1086Q (Saccharomyces cerevisiae, UniProt P53893, R1086Q).
T2 construct: made in house; host or cells: Saccharomyces cerevisiae
T2 sequence (P53893 whole entry R1086Q): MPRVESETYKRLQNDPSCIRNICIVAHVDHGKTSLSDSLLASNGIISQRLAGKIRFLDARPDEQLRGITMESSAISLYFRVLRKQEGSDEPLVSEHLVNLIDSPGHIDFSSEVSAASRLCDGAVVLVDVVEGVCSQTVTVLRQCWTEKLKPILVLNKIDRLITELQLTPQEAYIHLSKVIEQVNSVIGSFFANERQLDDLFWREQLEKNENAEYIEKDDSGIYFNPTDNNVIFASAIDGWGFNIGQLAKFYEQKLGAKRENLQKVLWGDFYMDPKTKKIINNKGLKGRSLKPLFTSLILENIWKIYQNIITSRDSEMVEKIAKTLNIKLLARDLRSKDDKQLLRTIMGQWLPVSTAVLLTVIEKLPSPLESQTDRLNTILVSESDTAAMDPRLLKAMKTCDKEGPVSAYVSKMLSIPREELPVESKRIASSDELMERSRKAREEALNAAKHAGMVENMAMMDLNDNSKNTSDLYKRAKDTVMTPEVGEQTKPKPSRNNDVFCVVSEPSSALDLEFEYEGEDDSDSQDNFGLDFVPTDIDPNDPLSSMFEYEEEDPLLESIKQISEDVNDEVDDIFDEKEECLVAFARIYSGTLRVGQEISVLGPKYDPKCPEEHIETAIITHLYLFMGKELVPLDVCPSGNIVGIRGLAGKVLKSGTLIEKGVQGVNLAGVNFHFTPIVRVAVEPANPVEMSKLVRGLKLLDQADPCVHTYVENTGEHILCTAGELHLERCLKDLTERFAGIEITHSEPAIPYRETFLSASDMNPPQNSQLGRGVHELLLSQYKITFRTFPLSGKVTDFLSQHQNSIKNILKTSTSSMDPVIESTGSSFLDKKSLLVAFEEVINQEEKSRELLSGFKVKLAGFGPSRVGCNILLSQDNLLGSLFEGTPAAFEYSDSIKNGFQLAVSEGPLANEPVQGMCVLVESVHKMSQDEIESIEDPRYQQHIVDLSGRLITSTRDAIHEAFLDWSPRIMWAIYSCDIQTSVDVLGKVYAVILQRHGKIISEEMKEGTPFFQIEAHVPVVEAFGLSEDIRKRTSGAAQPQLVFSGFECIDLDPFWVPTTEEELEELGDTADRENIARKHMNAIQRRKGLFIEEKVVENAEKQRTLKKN
The series is described as follows: Isothermal titration calorimetry (ITC): binding of guanine nucleotides or Sdo1 to Efl1 R1086Q. The following applies: for Nconfres (number of residues changing conformation, absolute value) / ΔCpb: +Mg^2+; for Nconfres (number of residues changing conformation, absolute value): 30 °C; for ΔCpb: guanine nucleotide, from ΔHb at 25–35 °C. The protocol:
as §1, §2, §3, §4, §5
A general note: In ITC the heat of successive injections is recorded.

A further series concerns the target T3, Efl1 R1086Q P151L (Saccharomyces cerevisiae, UniProt P53893, P151L/R1086Q).
T3 construct: made in house; host or cells: Saccharomyces cerevisiae
The experiment in a line: ITC: binding of GTP to double mutant Efl1 R1086Q P151L. The conditions noted are these: +Mg^2+, from ΔHb at 25–35 °C.

For a further series, the system named is wild-type Efl1. The conditions noted are these: guanine nucleotide, +Mg^2+; cited from earlier work.
Substrate in series [1]: Nc1nc2c(ncn2[C@@H]2O[C@H](COP(=O)(O)OP(=O)(O)OP(=O)(O)O)[C@@H](O)[C@H]2O)c(=O)[nH]1
The experiment in a line: GTP hydrolysis by PNP-coupled Enzchek phosphate assay (MESG, 360 nm), pH 7.5, 5 mM MgCl2, 6 µM Efl1 alone, Michaelis-Menten fit. Type of series: biochemical. The following applies: 25.0 °C. The procedure:
(§6) Finally, we measured the enzyme kinetics of mutant Efl1 R1086Q as an isolated enzyme and bound to Sdo1 using an enzymatic coupled assay with a purine nucleoside phosphorylase (PNP) enzyme. This analysis was extended to another disease mutation (EFL1 M882K) also located in domain IV of the GTPase using the equivalent yeast variant, Efl1 L910K [17]. The Km and kcat kinetic parameters were calculated using non-linear regression assuming a Michaelis–Menten model (Supplementary Table S1). […] The catalytic constant for mutant R1086Q and the wild-type enzyme consisted of 0.67 min^−1, and it was 0.58 min^−1 for mutant Efl1 L910K. […] In line with the proposed role of Sdo1 as a guanine exchange factor of Efl1, previous results have shown that the interaction of wild-type Efl1 with Sdo1 impacted its Km for GTP, decreasing its value 2–3-fold. The Km values for the complexes formed between Sdo1 and Efl1 mutants decreased by half with respect to their cognate-free counterpart and differed from each other. […] The measured Km value comprises all the microscopic rate constants of the individual reactions occurring in the enzyme, which include the binding to the substrate and product and the corresponding conformational changes.
Hydrolysis of GTP was measured using the Enzchek Phosphate Assay kit (Molecular Probes) as described by Webb. […]
Reactions were initiated and the GTPase was added after 3 min. Time courses were followed by recording the change in absorbance at 360 nm in a Cary 60 UV -Vis spectrophotometer (Agilent Technologies). Background absorbance was recorded prior to the addition of the GTPase and subtracted from the sample signals. The slope of the measured time courses corresponded to the GTP hydrolysis rate. […] Data were analysed by nonlinear regression to the M ichaelis-Menten equation with the program Origin Version 5.0 (OriginLab, Co., Northampton, MA). […]
(§7) Maximum emission at 440 nm was replotted as a function of nucleotide concentration and analysed

Series [2] is described as follows: Enzyme kinetics of GTP hydrolysis (PNP coupled assay, Michaelis–Menten). In kind it is biochemical, Saccharomyces cerevisiae. The following applies: enzyme in complex with Sdo1 (25 µM Sdo1). The procedure:
as §6
Hydrolysis of GTP was measured using the Enzchek Phosphate Assay kit (Molecular Probes) as described by Webb. Standard reactions consisted of 100 µL containing 6 µM of Efl1 R1086Q and Efl1 L910K, 0.3 mM MESG, 1.0 U purine nucleoside phosphorylase (PNP) and the indicated amounts of GTP. Measurements done in the presence of effector protein contained 25 µM of Sdo1.
The reaction buffer consisted of 50 mM HEPES -KOH pH 7.5, 150 mM NaCl, 5 mM MgCl2.
Reactions were initiated and the GTPase was added after 3 min. Time courses were followed by recording the change in absorbance at 360 nm in a Cary 60 UV -Vis spectrophotometer (Agilent Technologies). Background absorbance was recorded prior to the addition of the GTPase and subtracted from the sample signals. The slope of the measured time courses corresponded to the GTP hydrolysis rate. The concentration of releas ed phosphate was estimated using a molar absorption coefficient at 360 nm of 14,386 M -1 cm-1 previously described in [2]. Data were analysed by nonlinear regression to the M ichaelis-Menten equation with the program Origin Version 5.0 (OriginLab, Co., Northampton, MA). […]
M HEPES-KOH pH 7.4, 2.5 mM magnesium acetate, 50 mM sucrose, 2 mM DTT, 0.1 mM PMSF, 0.1 mM benzamidine, 8 mM putrescine, 1 mM spermidine. […]
Dilution at the end of each titration was no longer than 2.5% of the initial volume. Data were corrected for the background signal by subtracting the fluorescence of the same ligand concentration without the GTPase in the reaction mixture.
as §7

T1 sequence (P53893 whole entry R1086Q, one chain of several): as the sequence (P53893 whole entry R1086Q) above
T3 sequence (P53893 whole entry P151L/R1086Q): as the sequence (P53893 whole entry R1086Q) above, with P151L counted along it

As to MgGDP, on Efl1 R1086Q•Sdo1 (presence of magnesium ions), the “ΔΔCpb (Efl1 R1086Q•Sdo1 vs isolated enzyme)” value is −45 cal mol^−1 K^−1. The “increase in binding enthalpy as temperature increased” value at Efl1 R1086Q (25 °C to 35 °C) is given as ~ 3 kcal mol^−1. Besides, at Efl1 R1086Q, the “Nconfres (number of residues changing conformation, absolute value)” value is on record as 21 and the ΔCpb is listed as −270 cal mol^−1 K^−1. Further, on Efl1 R1086Q (refers to Table 3, 30 °C), the “surface buried by the conformational change” value is given as ~ 1000 Å.
Turning to MgGTP, the ΔCpb on Efl1 R1086Q P151L is recorded as −220 cal mol^−1 K^−1; at Efl1 R1086Q•Sdo1 (+Mg^2+, from ΔHb at 25–35 °C) it was −400 cal mol^−1 K^−1; at Efl1 R1086Q, 10 cal mol^−1 K^−1; with wild-type Efl1 it was −560 cal mol^−1 K^−1. Besides, the “Nconfres (number of residues changing conformation, absolute value)” value is reported as 36 at Efl1 R1086Q•Sdo1 (+Mg^2+, 30 °C) and 3 at Efl1 R1086Q. Besides, the “additional residues modified with respect to the isolated enzyme” value at Efl1 R1086Q•Sdo1 (presence of magnesium ions) is listed as 40. In addition, the “ΔΔCpb (Efl1 R1086Q•Sdo1 vs isolated enzyme)” value on Efl1 R1086Q•Sdo1 (presence of magnesium ions) is −410 cal mol^−1 K^−1. Besides, the “fold increase in affinity from 25 °C to 35 °C” value at Efl1 R1086Q (35 °C vs 25 °C) is 1.2 fold.

B1: Efl1 L910K (Saccharomyces cerevisiae S288C; L910K) (protein)
chain: MPRVESETYKRLQNDPSCIRNICIVAHVDHGKTSLSDSLLASNGIISQRLAGKIRFLDARPDEQLRGITMESSAISLYFRVLRKQEGSDEPLVSEHLVNLIDSPGHIDFSSEVSAASRLCDGAVVLVDVVEGVCSQTVTVLRQCWTEKLKPILVLNKIDRLITELQLTPQEAYIHLSKVIEQVNSVIGSFFANERQLDDLFWREQLEKNENAEYIEKDDSGIYFNPTDNNVIFASAIDGWGFNIGQLAKFYEQKLGAKRENLQKVLWGDFYMDPKTKKIINNKGLKGRSLKPLFTSLILENIWKIYQNIITSRDSEMVEKIAKTLNIKLLARDLRSKDDKQLLRTIMGQWLPVSTAVLLTVIEKLPSPLESQTDRLNTILVSESDTAAMDPRLLKAMKTCDKEGPVSAYVSKMLSIPREELPVESKRIASSDELMERSRKAREEALNAAKHAGMVENMAMMDLNDNSKNTSDLYKRAKDTVMTPEVGEQTKPKPSRNNDVFCVVSEPSSALDLEFEYEGEDDSDSQDNFGLDFVPTDIDPNDPLSSMFEYEEEDPLLESIKQISEDVNDEVDDIFDEKEECLVAFARIYSGTLRVGQEISVLGPKYDPKCPEEHIETAIITHLYLFMGKELVPLDVCPSGNIVGIRGLAGKVLKSGTLIEKGVQGVNLAGVNFHFTPIVRVAVEPANPVEMSKLVRGLKLLDQADPCVHTYVENTGEHILCTAGELHLERCLKDLTERFAGIEITHSEPAIPYRETFLSASDMNPPQNSQLGRGVHELLLSQYKITFRTFPLSGKVTDFLSQHQNSIKNILKTSTSSMDPVIESTGSSFLDKKSLLVAFEEVINQEEKSRELLSGFKVKLAGFGPSRVGCNILLSQDNLLGSLFEGTPAAFEYSDSIKNGFQLAVSEGPKANEPVQGMCVLVESVHKMSQDEIESIEDPRYQQHIVDLSGRLITSTRDAIHEAFLDWSPRIMWAIYSCDIQTSVDVLGKVYAVILQRHGKIISEEMKEGTPFFQIEAHVPVVEAFGLSEDIRKRTSGAAQPQLVFSGFECIDLDPFWVPTTEEELEELGDTADRENIARKHMNAIRRRKGLFIEEKVVENAEKQRTLKKN
notes: recombinantly expressed in S. cerevisiae; isolated GTPase
As for B1, the Km in series [1] amounted to 185 µM.

B2: Efl1 L910K • Sdo1: binary complex of mutant GTPase Efl1 L910K and effector Sdo1 (protein, UniProt P53893 1-1110; Q07953 1-250, looked up, variant L910K)
Ribosome assembly protein 1: B1 chain
Ribosome maturation protein …: MPINQPSGQIKLTNVSLVRLKKARKRFEVACYQNKVQDYRKGIEKDLDEVLQIHQVFMNVSKGLVANKEDLQKCFGTTNVDDVIEEIMHKGEIQLSEKERQLMLNKVNNEMLTIVSAKCINPVSKKRYPPTMIHKALQELKFSPVINKPAKLQALEAIKLLVSKQIIPIVRAKMKVKVAISEPSRQPELIEKISKLIASSPGESTKPELDPWTCTGLIDPVNYRDLMTLCDKKGTVQVLDMAVIDNTTHN
modifications: binary complex
Regarding B2, in series [2], the kcat was 0.0125 s⁻¹.

B3: Efl1 R1086Q • Sdo1: binary complex of mutant GTPase Efl1 R1086Q and effector Sdo1 (protein, UniProt P53893 1-1110; Q07953 1-250, looked up, variant R1086Q)
Ribosome assembly protein 1: B1 chain with K910L, R1086Q
Ribosome maturation protein …: B2 Ribosome maturation protein …
modifications: binary complex
In the case of B3, the kcat in series [2] stood at 0.0112 s⁻¹.

B4: Efl1 WT • Sdo1: binary complex of wild-type Efl1 GTPase and effector Sdo1 (protein, UniProt P53893 1-1110; Q07953 1-250, looked up)
Ribosome assembly protein 1: B1 chain with K910L
Ribosome maturation protein …: B2 Ribosome maturation protein …
modifications: binary complex
As to B4, the kcat in series [2] amounted to 0.0107 s⁻¹.

Broadly, the Km is the substrate concentration at which the rate is half of its maximum. In general, kcat refers to the maximal rate divided by the concentration of active sites.

Values taken from article PMC9405973, “Altered Conformational Landscape upon Sensing Guanine Nucleotides in a Disease Mutant of Elongation Factor-like 1 (EFL1) GTPase” (Biomolecules, 2022).
